How the values were obtained:
[1] = test system: rat passive peritoneal anaphylaxis; experiment: Rat Passive Peritoneal Anaphylaxis (PPA); format: in vivo; conditions: Mean ± SEM, 5-7 rats per group; for Dye concentration in peritoneal fluid as % of mean of controls: Pontamine Sky Blue
Procedure: (§1) The compounds were tested for their ability to:
(a) inhibit rat passive peritoneal anaphylaxis; and
(§2) Charles River Sprague Dawley male rats of 250-300 g. and Dunkin Hartley male white guinea pigs of 250-300 g. were used.
The method has been described previously. (Ross, Janet W., Smith, H. and Spicer, Barbara A. Increased vascular permeability during passive peritoneal anaphylaxis in the rat. Int. Arch. Allergy appl. Immun., 51, 226, 1976).
Rats were sensitised by giving an intraperitoneal injection of 0.5 ml of Bordetella pertussis vaccine (4×10^10 organisms/ml Burroughs Wellcome, London) and a subcutaneous injection of 0.5 ml of an emulsion of 100 mg of ovalbumin (chicken egg albumin, crystallised and lyophilised, grade 3, Sigma, London) in 2 ml of isotonic saline and 3 ml of Freud's incomplete adjuvant (Difco Laboratories, Michigan, USA).
The rats were bled by cardiac puncture, on day 18, the blood was pooled, and the serum separated, stored at -20° C. and thawed only before use.
Rats were each given an intraperitoneal injection of 2 ml of a 1:5 dilution of the rat anti-serum in isotonic saline. Two hours later 0.3 ml of a 5% solution of Pontamine Sky Blue (Raymond A. Lamb, London) in isotonic saline was injected intravenously, followed by an intraperitoneal injection of the test compound in 1 ml of saline; (control rats received 1 ml of saline); followed 30 seconds later by an intraperitoneal injection of 5 ml of Tyrode's solution containing 50 μg/ml heparin and 0.4 mg/ml of ovalbumin. The concentrations of the compounds were quoted as those in the 6 ml of fluid injected intraperitoneally. Exactly five minutes after challenge the rats were stunned and bled and their peritoneal fluids were collected by opening their peritoneal cavities over funnels into polycarbonate tubes in ice. The supernatants were separated from the cellular residue by centrifuging at 150 g. for five minutes and were retained for assay of dye and histamine. Any samples obviously contaminated with blood were not used for estimation of dye. Groups of at least five rats were used for each dose of compound and the treatments were randomised.
Dye was assayed within two hours by measurement of optical density (OD) at 625 nm.
For histamine assay 0.5 ml samples of the supernatants were added to 1 ml volumes of 12% trichloracetic acid and stored at -20° C. The deproteinised samples were assayed using an automated spectrofluorimetric system (Technicon Autoanalyser) by a method similar to that of Evans, D. P., Lewis, J. A. and Thomson, D. S.: (An automated fluorimetric assay for the rapid determination of histamine in biological fluids. Life Sci. 12, 327, 1973).

[2] = test system: slow reacting substance of anaphylaxis (SRS-A), isolated guinea pig ileum; experiment: SRS-A Antagonism on Guinea Pig Ileum; conditions: isolated guinea pig ileum strips; Tyrode's solution with atropine 5×10^-7 M and mepyramine 10^-6 M; rat SRS-A; read-out: Approximate concentration to give a 50% inhibition of a less than maximal response to SRS-A
Procedure: as §1
(b) antagonise the spasmogenic effects of slow reacting substance of anaphylaxis, SRS-A, on isolated guinea pig ileum.
as §2
The compounds have been evaluated as direct antagonists of slow reacting substance of anaphylaxis (SRS-A) by assay using the isolated guinea pig ileum.
SRS-A rat was obtained from the peritoneal cavity of the rat after passive peritoneal anaphylaxis by a method based on that of R. P. Orange, D. J. Stechschulte and K. F. Austen, J. Immunology, 105, 1087 (1970) as described by J. W. Ross, H. Smith and B. A. Spicer 1976, Increased vascular permeability during passive peritoneal anaphylaxis in the rat. Int. Arch. Allergy appl. 51, 226. The sensitising serum containing antibody was produced in rats as described by J. W. Ross et. al., ibid.
2 ml of a 1 in 5 dilution of the sensitising serum was injected by the peritoneal route into recipient rats and after 2 hours 5 ml of Tyrode's solution containing 0.4 mg/ml ovalbumin (Sigma Grade III) and 50 μg/ml heparin was injected by the same route. Five minutes after challenge the rats were stunned and bled and the peritoneal fluids collected into polycarbonate tubes in ice. After centrifugation at 150 g. for five minutes the supernatants were combined, heated in a boiling water bath for five minutes, cooled and stored at -20° C. The combined peritoneal fluids contained SRS-A and were used in the antagonism studies.
The SRS-A arrays were carried out on isolated strips of guinea pig ileum in Tyrode's solution containing atropine 5×10^-7 M and mepyramine 10^-6 M as described by W. E. Brocklehurst, J. Physiology, 151, 416 (1960).
The activity of the antagonists was determined by their ability to reduce submaximal responses induced by SRS-A. The antagonists were added to the 4 ml bath in 0.1 ml volumes in aqueous solution half a minute before the addition of SRS-A and were present during induced contraction.

CCCc1c(OCCCOc2ccc3c(c2)C(=O)c2nn[nH]c2C3=O)ccc(C(C)=O)c1O [Example 1, 6-[3-(4-Acetyl-3-hydroxy-2-n-propylphenoxy)propoxy]4,9-dihydro-4,9-dioxo-1H-naphtho[2,3-d]-v-triazole]
Histamine concentration in peritoneal fluid as % of mean of controls ([1]; 2 × 10^-5 M injected i.p.): 10 ± 1 % of mean of controls | Dye concentration in peritoneal fluid as % of mean of controls ([1]; 2 × 10^-5 M injected i.p.): 32 ± 5 % of mean of controls | Histamine concentration in peritoneal fluid as % of mean of controls ([1]; 2 × 10^-6 M injected i.p.): 27 ± 8 % of mean of controls | Dye concentration in peritoneal fluid as % of mean of controls ([1]; 2 × 10^-6 M injected i.p.): 58 ± 8 % of mean of controls | Histamine concentration in peritoneal fluid as % of mean of controls ([1]; 2 × 10^-7 M injected i.p.): 57 ± 11 % of mean of controls | Dye concentration in peritoneal fluid as % of mean of controls ([1]; 2 × 10^-7 M injected i.p.): 63 ± 5 % of mean of controls | IC50 [2]: ~0.4 µM

CCCc1c(OCCCOc2cccc3c2C(=O)c2nn[nH]c2C3=O)ccc(C(C)=O)c1O [Example 3, 5-[3-(4-Acetyl-3-hydroxy-2-n-propylphenoxy)-propoxy]4,9-dihydro-4,9-dioxo-1H-naphtho[2,3-d]-v-triazole]
Histamine concentration in peritoneal fluid as % of mean of controls ([1]; 2 × 10^-5 M injected i.p.): 25 ± 3 % of mean of controls | Dye concentration in peritoneal fluid as % of mean of controls ([1]; 2 × 10^-5 M injected i.p.): 57 ± 4 % of mean of controls | Histamine concentration in peritoneal fluid as % of mean of controls ([1]; 2 × 10^-6 M injected i.p.): 62 ± 11 % of mean of controls | Dye concentration in peritoneal fluid as % of mean of controls ([1]; 2 × 10^-6 M injected i.p.): 94 ± 8 % of mean of controls | IC50 [2]: 1 to 10 µM

CCCc1c(OCC(O)COc2ccc3c(c2)C(=O)c2nn[nH]c2C3=O)ccc(C(C)=O)c1O (centres unmarked) [Example 4, 6-[3-(4-Acetyl-3-hydroxy-2-n-propylphenoxy)2-hydroxypropoxy]-4,9-dihydro-4,9-dioxo-1H-naphtho[2,3-d]-v-triazole]
Histamine concentration in peritoneal fluid as % of mean of controls ([1]; 2 × 10^-7 M injected i.p.): 38 ± 4 % of mean of controls | Dye concentration in peritoneal fluid as % of mean of controls ([1]; 2 × 10^-7 M injected i.p.): 58 ± 4 % of mean of controls | Histamine concentration in peritoneal fluid as % of mean of controls ([1]; 2 × 10^-8 M injected i.p.): 64 ± 11 % of mean of controls | Dye concentration in peritoneal fluid as % of mean of controls ([1]; 2 × 10^-8 M injected i.p.): 72 ± 11 % of mean of controls | IC50 [2]: 0.1 to 0.25 µM
